Laboratory results as given in ChEMBL document CHEMBL1201862, “PubChem BioAssay data set” (2004).
Calls of active or inactive are those of the source.

Experiments:
[1] = molecular target: T1, Sentrin-specific protease 8 (Homo sapiens, UniProt Q96LD8); format: functional;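 note: luminescence read-out of SENP8 inhibition, dose-response confirmation following an ultra-high-throughput screen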
T1 sequence (Q96LD8 whole entry): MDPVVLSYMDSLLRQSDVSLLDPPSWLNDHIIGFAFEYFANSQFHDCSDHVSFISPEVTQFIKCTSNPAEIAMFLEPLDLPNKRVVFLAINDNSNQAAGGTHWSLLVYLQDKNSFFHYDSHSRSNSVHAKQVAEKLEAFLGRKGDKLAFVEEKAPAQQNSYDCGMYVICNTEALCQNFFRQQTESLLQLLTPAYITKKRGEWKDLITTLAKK

[2] = molecular target: T2, Caspase-3 (Homo sapiens, UniProt P42574); format: functional;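 note: Dose-response selectivity test against caspase-3 for candidate inhibitors of sentrin-specific proteases (SENPs)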
T2 sequence (P42574 whole entry): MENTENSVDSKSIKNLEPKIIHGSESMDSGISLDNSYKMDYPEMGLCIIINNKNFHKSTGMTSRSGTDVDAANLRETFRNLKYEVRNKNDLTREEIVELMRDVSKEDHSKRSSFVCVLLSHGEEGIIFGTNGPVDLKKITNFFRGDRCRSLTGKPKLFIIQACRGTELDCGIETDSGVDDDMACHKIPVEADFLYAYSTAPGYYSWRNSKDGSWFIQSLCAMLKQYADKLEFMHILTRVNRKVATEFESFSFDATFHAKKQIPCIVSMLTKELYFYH

[3] = molecular target: T3, Sentrin-specific protease 6 (Homo sapiens, UniProt Q9GZR1); format: functional;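 note: Luminescence-based dose-response confirmatory assay of SENP6 inhibition, following up an ultra-high-throughput screen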
T3 sequence (Q9GZR1 whole entry): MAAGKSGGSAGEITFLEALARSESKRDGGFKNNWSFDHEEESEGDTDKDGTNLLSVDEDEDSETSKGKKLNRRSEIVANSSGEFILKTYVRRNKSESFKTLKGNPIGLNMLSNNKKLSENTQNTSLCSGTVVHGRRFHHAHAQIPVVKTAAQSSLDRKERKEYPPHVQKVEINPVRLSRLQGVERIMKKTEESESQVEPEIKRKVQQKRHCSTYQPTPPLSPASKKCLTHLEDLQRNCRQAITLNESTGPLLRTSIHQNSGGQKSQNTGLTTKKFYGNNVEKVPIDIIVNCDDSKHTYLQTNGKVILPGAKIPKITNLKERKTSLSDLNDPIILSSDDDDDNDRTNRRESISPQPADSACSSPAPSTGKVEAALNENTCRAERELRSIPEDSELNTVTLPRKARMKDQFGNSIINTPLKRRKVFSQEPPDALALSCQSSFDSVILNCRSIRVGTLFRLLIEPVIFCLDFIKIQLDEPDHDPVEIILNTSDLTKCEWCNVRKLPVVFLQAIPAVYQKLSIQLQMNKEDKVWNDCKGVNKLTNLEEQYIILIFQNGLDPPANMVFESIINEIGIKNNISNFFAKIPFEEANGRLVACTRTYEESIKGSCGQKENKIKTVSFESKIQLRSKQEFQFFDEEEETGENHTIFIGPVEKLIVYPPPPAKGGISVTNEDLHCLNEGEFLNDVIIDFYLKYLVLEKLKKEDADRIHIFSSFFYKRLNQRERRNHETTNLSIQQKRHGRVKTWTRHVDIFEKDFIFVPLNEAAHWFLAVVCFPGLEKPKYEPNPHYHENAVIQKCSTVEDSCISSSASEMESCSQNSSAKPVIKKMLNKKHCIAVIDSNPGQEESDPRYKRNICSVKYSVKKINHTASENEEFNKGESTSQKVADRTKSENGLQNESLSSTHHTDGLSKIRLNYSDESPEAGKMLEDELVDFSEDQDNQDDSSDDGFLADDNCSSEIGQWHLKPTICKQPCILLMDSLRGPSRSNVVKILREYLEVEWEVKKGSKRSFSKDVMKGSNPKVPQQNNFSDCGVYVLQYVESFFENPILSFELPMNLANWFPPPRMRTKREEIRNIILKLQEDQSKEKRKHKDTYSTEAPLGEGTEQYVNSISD

[4] = molecular target: T4, Sentrin-specific protease 7 (Homo sapiens, UniProt Q9BQF6); format: functional;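 note: Luminescence-based dose-response confirmation of ultra-high-throughput screening hits, measuring inhibition of SENP7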
T4 sequence (Q9BQF6 whole entry): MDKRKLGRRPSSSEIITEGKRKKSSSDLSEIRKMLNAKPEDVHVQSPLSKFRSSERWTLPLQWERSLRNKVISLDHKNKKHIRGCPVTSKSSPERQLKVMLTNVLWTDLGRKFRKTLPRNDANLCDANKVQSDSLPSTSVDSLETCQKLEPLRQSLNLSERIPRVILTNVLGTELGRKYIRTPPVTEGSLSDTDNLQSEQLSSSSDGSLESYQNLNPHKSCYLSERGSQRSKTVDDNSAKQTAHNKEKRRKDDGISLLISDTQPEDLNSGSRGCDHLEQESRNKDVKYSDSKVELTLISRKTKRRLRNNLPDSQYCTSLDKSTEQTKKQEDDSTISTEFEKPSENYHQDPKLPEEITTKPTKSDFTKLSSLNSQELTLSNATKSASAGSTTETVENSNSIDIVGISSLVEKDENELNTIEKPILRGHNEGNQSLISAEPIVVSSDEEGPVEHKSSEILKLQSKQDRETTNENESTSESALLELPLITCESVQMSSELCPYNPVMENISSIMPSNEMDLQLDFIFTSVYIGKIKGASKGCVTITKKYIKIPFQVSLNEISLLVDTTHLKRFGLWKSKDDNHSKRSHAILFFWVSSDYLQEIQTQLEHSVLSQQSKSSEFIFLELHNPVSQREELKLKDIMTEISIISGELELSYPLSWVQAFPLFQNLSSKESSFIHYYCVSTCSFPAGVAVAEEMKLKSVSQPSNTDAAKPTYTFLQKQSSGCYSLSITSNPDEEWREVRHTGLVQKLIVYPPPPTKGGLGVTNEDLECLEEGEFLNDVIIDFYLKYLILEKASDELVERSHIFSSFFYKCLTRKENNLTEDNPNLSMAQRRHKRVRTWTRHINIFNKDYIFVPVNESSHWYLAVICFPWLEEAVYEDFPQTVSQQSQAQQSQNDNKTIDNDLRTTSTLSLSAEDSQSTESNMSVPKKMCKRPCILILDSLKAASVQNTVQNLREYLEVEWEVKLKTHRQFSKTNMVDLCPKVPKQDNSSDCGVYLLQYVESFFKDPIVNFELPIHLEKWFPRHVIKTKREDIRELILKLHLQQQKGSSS

[5] = tested on: Jurkat; assay: blockers of NF-kB activation in T cells – Jurkat, luciferase reporter, luminescence, B- and T-cell, dose response (AID 489004); format: functional, cell-based; conditions: Homo sapiens;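 note: NF-kB luciferase reporter Jurkat cells stimulated with PMA plus ionomycin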
[6] = molecular target: T5, Rac GTPase-activating protein 1 (Homo sapiens, UniProt Q9H0H5); assay: blockers of MgcRacGAP-driven Rac1 GTP hydrolysis – biochemical, ADP Hunter fluorescence, primary and confirmatory, confirmation (AID 624330); format: functional
T5 sequence (Q9H0H5 whole entry): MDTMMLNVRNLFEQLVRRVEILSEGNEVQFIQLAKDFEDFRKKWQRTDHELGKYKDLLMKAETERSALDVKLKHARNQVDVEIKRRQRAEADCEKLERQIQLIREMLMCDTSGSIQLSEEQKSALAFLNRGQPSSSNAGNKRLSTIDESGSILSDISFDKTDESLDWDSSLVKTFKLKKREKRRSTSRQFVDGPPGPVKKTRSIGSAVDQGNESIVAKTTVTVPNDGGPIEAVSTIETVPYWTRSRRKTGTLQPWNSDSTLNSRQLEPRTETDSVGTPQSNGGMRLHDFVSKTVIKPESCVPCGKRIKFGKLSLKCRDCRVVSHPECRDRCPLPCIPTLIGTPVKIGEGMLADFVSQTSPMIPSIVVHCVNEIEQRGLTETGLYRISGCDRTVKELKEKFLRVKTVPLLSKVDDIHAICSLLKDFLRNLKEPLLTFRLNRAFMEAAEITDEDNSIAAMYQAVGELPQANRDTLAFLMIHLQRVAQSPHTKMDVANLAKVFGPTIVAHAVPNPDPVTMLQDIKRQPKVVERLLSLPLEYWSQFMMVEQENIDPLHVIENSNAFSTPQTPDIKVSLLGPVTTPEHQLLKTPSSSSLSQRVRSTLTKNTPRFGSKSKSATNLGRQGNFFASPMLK

[7] = HEK-293T viability loss, compound-treated – cell-based, uHTS hits, cytotoxicity control for B/T-cell NF-kB inhibitor project, dose response (AID 489019); format: functional;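 note: IC50 reflects cytotoxicity as loss of cell viability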
[8] = molecular target: Large T antigen (Simian virus 40, UniProt P03070); format: functional, Betapolyomavirus macacae;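 note: Confirmatory-stage PubChem screen for compounds that inhibit SV40 T antigen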
Chain of Large T antigen (P03070 whole entry): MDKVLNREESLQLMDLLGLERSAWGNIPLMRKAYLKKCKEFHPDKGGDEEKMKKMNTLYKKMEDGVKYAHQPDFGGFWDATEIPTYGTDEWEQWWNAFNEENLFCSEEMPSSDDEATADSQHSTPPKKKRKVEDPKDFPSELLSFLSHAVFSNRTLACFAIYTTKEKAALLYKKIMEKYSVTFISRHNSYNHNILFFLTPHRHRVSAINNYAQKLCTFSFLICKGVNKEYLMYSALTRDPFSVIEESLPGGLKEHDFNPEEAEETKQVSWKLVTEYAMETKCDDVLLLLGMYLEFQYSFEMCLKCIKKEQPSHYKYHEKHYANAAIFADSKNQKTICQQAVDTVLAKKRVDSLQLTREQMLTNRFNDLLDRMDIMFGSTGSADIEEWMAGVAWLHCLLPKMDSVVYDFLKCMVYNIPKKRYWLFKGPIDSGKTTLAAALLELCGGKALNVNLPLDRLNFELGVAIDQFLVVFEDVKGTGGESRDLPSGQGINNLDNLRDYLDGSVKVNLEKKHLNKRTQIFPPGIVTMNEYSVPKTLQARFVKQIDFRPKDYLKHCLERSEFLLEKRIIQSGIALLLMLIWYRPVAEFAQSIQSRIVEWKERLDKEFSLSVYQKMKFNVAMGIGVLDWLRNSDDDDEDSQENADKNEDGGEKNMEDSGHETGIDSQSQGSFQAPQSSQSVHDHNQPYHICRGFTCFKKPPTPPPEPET

[9] = tested on: HEK293; assay: EBV LMP1 TES2 canonical NF-kB signalling blockers – cell-based, HEK293, luciferase, cherry-pick, dose response (AID 588343); format: functional; conditions: Homo sapiens
[10] = cells; format: functional, cell-based
[11] = A549 cell cytotoxicity, dose response, cytotoxicity control, plate reader, cherry-pick, antagonist series (AID 743412); format: functional, cell-based
[12] = molecular target: T6, Nuclear receptor subfamily 0 group B member 1 (Homo sapiens, UniProt P51843); format: functional, cell-based;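 note: HEK293T cells transfected with SF-1 and DAX-1 plus StAR promoter luciferase reporter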
T6 sequence (P51843 whole entry): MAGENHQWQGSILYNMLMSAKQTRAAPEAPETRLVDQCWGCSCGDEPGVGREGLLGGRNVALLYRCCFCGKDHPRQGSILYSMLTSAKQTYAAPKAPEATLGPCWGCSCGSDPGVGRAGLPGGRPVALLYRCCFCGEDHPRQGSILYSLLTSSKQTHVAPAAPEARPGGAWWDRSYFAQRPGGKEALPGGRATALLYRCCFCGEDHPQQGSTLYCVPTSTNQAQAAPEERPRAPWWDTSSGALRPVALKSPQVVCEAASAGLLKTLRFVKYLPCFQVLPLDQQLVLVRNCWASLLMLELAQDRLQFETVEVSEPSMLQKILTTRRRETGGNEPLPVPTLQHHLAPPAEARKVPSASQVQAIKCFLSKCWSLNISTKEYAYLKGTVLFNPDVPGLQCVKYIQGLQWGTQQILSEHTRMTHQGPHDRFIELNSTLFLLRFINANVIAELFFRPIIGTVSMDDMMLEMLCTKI

[13] = blockade of melanocortin 4 receptor signaling – cell-based, plate reader, cherry pick, counter-screen for LGR2 antagonist project, dose response (AID 743444); format: functional;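 note: transfected HEK 293 cells stimulated with alpha-MSH peptide; potency of inhibitors of the alpha-MSH evoked signal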
[14] = blockers of bursicon-stimulated LGR2 cAMP reporter – cell-based, HEK293, CRE-luciferase reporter, cherry pick, set 2, dose response (AID 743343); format: functional;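 note: transfected cells were stimulated with diluted bursicon conditioned medium after compound addition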
[15] = tested on: BJ; assay: BJ-TERT fibroblast viability loss – cell-based, RAS-independent, luminescence, dose response (AID 1933); format: functional; conditions: Homo sapiens
[16] = DRD fibroblast viability loss – cell-based, non-viral oncogenic, luminescence, dose response (AID 1934); format: functional; conditions: Homo sapiens
[17] = tested on: INS1; assay: INS-1E survival protection against cytokine death – cell-based, luminescence, retest, dose response (AID 449756); format: functional; conditions: Rattus norvegicus;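 note: cell death triggered by IL-1 beta plus TNF-alpha plus IFN-gamma mixture; protective hits raise ATP signal compared with cytokine alone wells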
[18] = tested on: BJ; assay: BJ-TERT-LT-ST fibroblast viability loss – cell-based, RAS-independent, luminescence, dose response (AID 1935); format: functional; conditions: Homo sapiens;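 note: BJ fibroblasts immortalized with TERT plus LT and ST oncogenes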
[19] = tested on: BJ; assay: growth inhibition of engineered Ras-driven BJ cells – cell-based, alamar blue fluorescence, cherrypicked samples, dose response (AID 2631); format: functional; conditions: Homo sapiens;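 note: confirmatory dose-response assay in RAS-dependent BJ fibroblasts engineered with TERT, LT and ST, with cytotoxicity read by fluorescence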
[20] = tested on: BJ; assay: cells; format: functional, cell-based; conditions: Homo sapiens
[21] = molecular target: T7, Microphthalmia-associated transcription factor (Homo sapiens, UniProt O75030); assay: reducers of TRPM1 reporter luminescence, concentration series – cell-based, SK-MEL-5, cherry-picked, set 3, MITF inhibitor project, dose response (AID 493073); format: functional;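 note: SK-MEL-5 melanoma cells with luciferase driven by the MITF target TRPM1 promoter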
T7 sequence (O75030 whole entry): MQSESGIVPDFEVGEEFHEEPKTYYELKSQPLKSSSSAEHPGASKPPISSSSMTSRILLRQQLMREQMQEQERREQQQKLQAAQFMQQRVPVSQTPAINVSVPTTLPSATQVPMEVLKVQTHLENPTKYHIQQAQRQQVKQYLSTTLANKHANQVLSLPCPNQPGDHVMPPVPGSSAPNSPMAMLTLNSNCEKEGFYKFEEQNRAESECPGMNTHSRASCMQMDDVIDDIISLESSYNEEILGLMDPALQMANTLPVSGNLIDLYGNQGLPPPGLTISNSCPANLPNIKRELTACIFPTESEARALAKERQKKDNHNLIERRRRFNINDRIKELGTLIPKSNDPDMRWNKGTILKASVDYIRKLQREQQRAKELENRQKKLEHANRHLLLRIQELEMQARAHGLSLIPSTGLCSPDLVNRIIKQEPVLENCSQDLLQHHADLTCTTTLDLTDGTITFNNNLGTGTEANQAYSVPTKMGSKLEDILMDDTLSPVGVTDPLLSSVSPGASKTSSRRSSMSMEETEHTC

Structure (SMILES): CC(C)(C)C(=O)OCc1nc(-c2ccc(F)cc2)cs1
- IC50 [1]: 55.3 µM (active)
- IC50 [2]: 28.3 µM (active)
- IC50 [3]: 28.9 µM (active)
- IC50 [4]: 7.4 µM (active)

Structure (SMILES): CC(=O)Oc1cccc(/C=C2\Sc3ccccc3C2=O)c1
- IC50 [1]: 3.32 µM (active)
- IC50 [2]: 24.9 µM (active)
- IC50 [3]: 3.99 µM (active)
- IC50 [4]: 3.15 µM (active)

Structure (SMILES): COc1cc(/C=N/NC(=S)Nc2cccc(C(=O)O)c2)ccc1O
- IC50 [5]: 7.92 µM (active)
- IC50 [6]: 44.9 µM (active)
- IC50 [7]: > 80 µM (inactive)
- IC50 [8]: 22.1 µM (active)
- AC50 [9]: 1.9 µM (active)

Structure (SMILES): CCOc1ccc(C(=O)Nc2nnc(SCC(=O)NCC3CCCO3)s2)cc1 (stereo not given)
- IC50 [10]: > 67.5 µM (inactive)
- AC50 [9]: 1.52 µM (active)
- AC50 [11]: > 52 µM (inactive)
- IC50 [12]: > 67.5 µM (inactive)
- AC50 [13]: 3.95 µM (active)
- AC50 [14]: 3.43 µM (active)

Structure (SMILES): O=S(=O)(c1ccc(NC(=S)NCc2cccnc2)cc1)N1CCCCC1
- EC50 [15]: > 150 µM (not active)
- EC50 [16]: 20.5 µM (active)
- AC50 [17]: 1.11 µM (active)
- EC50 [18]: 767 nM (active)
- EC50 [19]: 623 nM (active)
- EC50 [20]: 594 nM (inconclusive)

Structure (SMILES): COc1cc(OC)cc(C(=O)N[C@H](C(=O)Nc2nc3ccccc3[nH]2)C(C)C)c1
- EC50 [15]: 1.48 µM (inconclusive)
- EC50 [16]: 1.91 µM (active)
- AC50 [21]: 2.44 µM (active)
- EC50 [18]: 1510 nM (inconclusive)
- EC50 [19]: 553 nM (active)
- EC50 [20]: 2730 nM (active)

Structure (SMILES): Cc1ccc(CNc2c([N+](=O)[O-])nn(-c3ccc4c(c3)OCCO4)[n+]2[O-])cc1
- IC50 [1]: > 100 µM (inactive)
- IC50 [2]: 66.5 µM (active)
- IC50 [3]: > 100 µM (inactive)
- IC50 [4]: 4.7 µM (active)
